The values below come from patent US12173029B2, “Antiviral prodrugs, pharmaceutical formulations, and methods” (priority 2020, dated 2024).

Each structure is given as a SMILES string. Where only a bound is given, the exact number is not on record here.

Series [1] has as its system USA WA-01 strain of SARS CoV-2. The series is described as follows: Example 2 anti-coronavirus activity in Vero E6 cells (qPCR spike RNA). Format: cell-based. As to conditions: Vero C1008, SARS CoV-2 USA WA-01, Vero E6 cells, MOI 0.1, 48 hours. As to the method:
Ten thousand Vero E6 cells were seeded in 100 microliters of culture medium in 96 well plates. The following day serial two-fold dilutions of antiviral compounds or the DMSO-containing vehicle were added to each well. The USA WA-01 strain of SARS CoV-2 was added to each well at a multiplicity of infection of 0.1 thirty minutes later. Cells were incubated for 48 hours, washed twice in PBS and lysed with TRIzol. RNA was extracted using Directzol micro RNA columns. RNA was made into cDNA and assayed for the SARS CoV-2 spike protein and for a housekeeping gene (RPLPO) RNA by qPCR. Data represents the average of duplicate wells. Cellular cytotoxicity was also measured in VERO E6 cells. […] Cytotoxicity (CC50) was assessed using a commercially available MTT assay.

Series [2] concerns SARS-CoV-2 isolate USA-WA1/2020. The series is described as follows: Example 3 SARS-CoV-2 infection in Vero E6 cells (qRT-PCR Spike RNA). Format: cell-based. As to conditions: Severe acute respiratory syndrome coronavirus 2, Vero C1008; SARS-CoV-2 USA-WA1/2020, Vero E6 cells, MOI 0.01, 48 hours, mean±SD.
The test system of the next series is VERO E6 cells. The experiment in a line: Example 4 generation of remdesivir triphosphate in Vero E6 cells (LC/MS/MS). Type of series: in vitro ADME, monkey. As to conditions: 1 μM drug, at 8 and 24 hours. The protocol:
In this example, Vero E6 cells were plated in 6 well plates at about 3.4×10^5 cells per well in 2 mL of media (DMEM, 10% FBS).
Cells were then incubated at 37° C. for 24 hours. Media was then aspirated and replaced with 2 ml of control media (fresh Dulbecco's Modified Eagle's Medium (DMEM), 10% FBS) or 2 mL of media with drug at a concentration of 1 μM. Cell were incubated with the various drugs for 48 hours. The media was aspirated, the cells rinsed twice with phosphate-buffered saline (PBS), trypsinized for 5 minutes with 1 mL ATV, triturated and removed to a 15 mL centrifuge tube, rinsed with 1 mL PBS, which was also then removed to the 15 mL centrifuge tube, and the cells were triturated again. Cells were counted in a Reichert hemocytometer using two 10 μL samples, and the number of cells in each sample was determined.
Cells were centrifuged at 1200 rpm for 10 minutes, diluent aspirated and the pellet resuspended in 250 μL of methanol/distilled water (70/30) and analyzed by LC/MS/MS. The results, which are depicted at FIG. 3, were in picomoles/10^6 cells and are the average of two or three determinations.

In series [3] the test system is SARS-CoV-2 isolate USA-WA1/2020. The experiment in a line: Example 7 SARS-CoV-2 infection in PSC-human lung cells (qRT-PCR). As to conditions: Severe acute respiratory syndrome coronavirus 2; SARS-CoV-2, PSC-human lung cells, MOI 0.01, 48 hours. Format: cell-based.
For series [4] the test system is unchanged. The series is described as follows: Example 7 SARS-CoV-2 infection in Calu-3 cells (qRT-PCR). Format: cell-based. As to conditions: Severe acute respiratory syndrome coronavirus 2; SARS-CoV-2, Calu-3 cells, MOI 0.01, 48 hours.
Series [5] shares this test system. The experiment in a line: Example 7 SARS-CoV-2 infection in Huh7.5 cells (qRT-PCR). Format: cell-based. As to conditions: Severe acute respiratory syndrome coronavirus 2; SARS-CoV-2, Huh7.5 cells, MOI 0.01, 48 hours, qRT-PCR, Example 7.
Series [6] shares this test system. The experiment in a line: Example 7 SARS-CoV-2 infection in Caco-2 cells (qRT-PCR). Type of series: cell-based. As to conditions: Severe acute respiratory syndrome coronavirus 2; SARS-CoV-2, Caco-2 cells, MOI 0.01, 48 hours.
For the next series, the system named is SARS-CoV-2. The series is described as follows: Example 7 SARS-CoV-2 antiviral activity, summary across the five cell types. Type of series: cell-based. As to conditions: Severe acute respiratory syndrome coronavirus 2; SARS-CoV-2, five cell types of Example 7; read-out: EC50, range across cell types.
A short description of series [7]: Example 7 cytotoxicity, summary across all cell lines. Format: cell-based. As to conditions: monkey, human; five cell types of Example 7, 48 hours. The protocol:
The cytotoxicity of each compound by incubating each of these cell lines with serial dilutions of each compound from 1.23 μM to 100 μM for 48 hours. […] The selectivity index of ODBG-P-RV ranged from 295 to 699 in the five cell types tested in this example).

The subject of the next series is Human Coronavirus 229E. The series is described as follows: Example 8 human coronavirus 229E in MRC-5 cells (CPE, MTT). Format: cell-based. The protocol:
Human Coronavirus 229E (ATCC) was propagated and infectious units quantified by TCID50 using MRC-5 cells. For antiviral testing, approximately 10^4 MRC-5 cells were seeded per well in EMEM (10% FCS) at 37 C in a 96 well plate overnight. Medium from each well was removed and cells were infected with 100 TCID50 virus in 100 μL medium for two hours.
Cells were washed one time with medium and then compounds or controls added at the indicated concentrations. After three days, CPE was observed under microscope and quantified using an MTT cell proliferation assay kit (Abcam) read on an ELx800, Universal Microplate reader (BIO-TEK Instruments, INC). The % Inhibition was calculated as (Atv−Acv)/(Acd−Acv)×100% where Atv indicates the absorbance of the test compounds with virus infected cells and A, and Aca indicate the absorbance of the virus control and the absorbance of the cell control, respectively. The average half-maximal effective concentration (EC50) was defined as the concentration which achieved 50% inhibition of virus-induced cytopathic effects.
FIG. 4A and FIG. 4B: ODBG-P-RVn (15d) inhibits the human Alphacoronavirus 229E. […] Cells were infected with 229E for 2 hours followed by treatment with the indicated dose of the indicated drug for 72 hours. The relative CPE was determined by measuring cell viability using an MTT assay.

Series [8] in a line: Example 8 cytotoxicity in MRC-5 cells (CellTiter-Glo). As to conditions: human. Format: cell-based. The protocol:
FIG. 4B depicts the cytotoxicity in MRC-5 cells incubated in the presence of the indicated drug at the indicated concentration for 72 hours, after which cell viability was measured by the CellTiter-Glo assay. Data points indicate the averages from 3 independent experiments performed in duplicate. Error bars represent the standard error mean (SEM).

The conditions of series [9]: after intravenous infusion; cited from earlier work.
Series [10] can be described thus: Example 7 cell viability assay (CellTiter-Glo) in Huh7.5 cells. As to conditions: human.
Series [11] is described as follows: Example 7 cell viability assay (CellTiter-Glo) in Vero E6 cells. As to conditions: monkey.
Series [12] in a line: Example 7 cell viability assay (CellTiter-Glo) in PSC-human lung cells.

As for `CCC(CC)COC(=O)[C@H](C)N[P@](=O)(OC[C@H]1O[C@@](C#N)(c2ccc3c(N)ncnn23)[C@H](O)[C@@H]1O)Oc1ccccc1` [RDV, Remdesivir], the 50% effective concentration (EC50) in series [1] turned out to be 3160 nM; in [2], 4600 nM; in series [3] it was 140 nM; in [4] it was 230 nM; in series [5] it was 60 nM; in series [6], 170 nM. The EC50 was 60 to 1130 nM with SARS-CoV-2 and 40 nM in the series on Human Coronavirus 229E (MRC5, 229E in MRC-5 cells, 72 hours, CPE by MTT, Example 8). The EC90 amounted to 5500 nM in [1]; 8900 ± 4900 nM in [2]; 230 nM in [3]; 310 nM in series [4]; 120 nM in series [5]; 280 nM in series [6]. This molecule had an EC90 with Human Coronavirus 229E (MRC5, 72 h) of 260 nM. The “levels of RVn-TP” value with VERO E6 cells was “below the level of quantification”. In series [7], this molecule gave a CC50 at 48 h not below 15200 nM. The molecule also returned a CC50 at 72 h in series [8] of more than 50000 nM. In addition, the “persistence in plasma at virologically significant levels” value in series [9] is on record as “less than 2 hours”. The CC50 at 48.5 h in series [10] is 15200 nM; in series [11], 101000 nM; in series [12], 32700 nM.
